Reference: ChEMBL document CHEMBL1145615, “A refined pharmacophore model for HIV-1 integrase inhibitors: Optimization of potency in the 1H-benzylindole series” (Bioorg Med Chem Lett, 2008)

How the values were obtained:
[1] = test system: Human immunodeficiency virus 1; assay: Antiviral activity against HIV1 3B assessed as inhibition of viral-induced cytopathic effect in human MT4 cells; format: functional, organism-based; conditions: Human immunodeficiency virus 1, 3B
[2] = Cytotoxicity against human MT4 cells; format: cell-based
[3] = Selectivity index, ratio of CC50 for human MT4 cells to EC50 for HIV1 3B; format: functional
[4] = molecular target: T1, Human immunodeficiency virus type 1 integrase (Human immunodeficiency virus 1, UniProt Q7ZJM1)
Description: Inhibition of HIV1 integrase

[5] = molecular target: T1, Human immunodeficiency virus type 1 integrase; remark: listed apart in the source
Description: Inhibition of HIV1 integrase strand transfer activity

T1 sequence (Q7ZJM1 whole entry): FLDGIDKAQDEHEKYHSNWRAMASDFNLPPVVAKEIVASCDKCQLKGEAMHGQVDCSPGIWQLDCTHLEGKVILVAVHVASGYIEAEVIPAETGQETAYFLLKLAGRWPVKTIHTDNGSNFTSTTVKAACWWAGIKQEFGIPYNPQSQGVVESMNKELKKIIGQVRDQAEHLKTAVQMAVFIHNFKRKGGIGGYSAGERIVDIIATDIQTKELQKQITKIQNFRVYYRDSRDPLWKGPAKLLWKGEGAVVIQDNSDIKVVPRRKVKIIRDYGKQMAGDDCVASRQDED

Row | SMILES | EC50 [1] [µM] | CC50 [2] [µM] | Ratio CC50/EC50 [3] | IC50 [4] [µM] | IC50 [5] [µM]
1 | COc1cc2c(cc1Cc1cccc(Cl)c1F)c(=O)c(C(=O)O)cn2[C@H](CO)C(C)C | 0.0008 | 2.12 |  |  | 
2 | Cc1nnc(C(=O)NC(C)(C)c2nc(C(=O)NCc3ccc(F)cc3)c(O)c(=O)n2C)o1 | 0.013 | > 18 |  |  | 
3 | COc1cccc2c1c(C(=O)/C=C(\O)C(=O)O)cn2Cc1ccc(F)cc1 |  | 41.1 | 70 | 0.08 | 0.14
4 | O=C(O)/C(O)=C/C(=O)c1cn(Cc2ccc(F)cc2)c2ccccc12 | 8.35 | 64.1 | 8 | 0.86 | 2.33
5 | COc1ccc(OC)c2c1c(C(=O)/C=C(\O)C(=O)O)cn2Cc1ccc(F)cc1 | 2.13 | 213 | 100 | 0.06 | 0.03
6 | CCOC(=O)/C(O)=C/C(=O)c1cn(Cc2ccc(F)cc2)c2c(OC)ccc(OC)c12 | 4.09 | 81.1 | 20 | 1.24 | 0.66
7 | CCOC(=O)/C(O)=C/C(=O)c1cn(Cc2ccc(F)cc2)c2cc(OC)ccc12 | > 100 | 100 | <1 | 1.96 | 2.34
8 | COc1ccc2c(C(=O)/C=C(\O)C(=O)O)cn(Cc3ccc(F)cc3)c2c1 | 8.39 | 66 | 8 | 0.19 | 0.22
9 | COc1cccc2c(C(=O)/C=C(\O)C(=O)O)cn(Cc3ccc(F)cc3)c12 | 7.04 | 82.9 | 12 | 0.27 | 0.19
10 | CCOC(=O)/C(O)=C/C(=O)c1cn(Cc2ccc(F)cc2)c2cccc(OC)c12 | 3.17 | 74 | 24 | 86.1 | 92.3
11 | CCOC(=O)/C(O)=C/C(=O)c1cn(Cc2ccc(F)cc2)c2c(OC)cccc12 | > 100 | > 100 |  | 4.76 | 2.64
12 | CCOC(=O)/C(O)=C/C(=O)c1cn(Cc2ccc(F)cc2)c2ccc(OC)cc12 | 11.5 | 126 | 11 | 4.6 | 7.55
13 | COc1ccc2c(c1)c(C(=O)/C=C(\O)C(=O)O)cn2Cc1ccc(F)cc1 | 5.63 | 63.6 | 12 | 0.3 | 0.27
